As usually defined, the melting point is the temperature of the solid-liquid transition.

On to `Cc1ccc(S(=O)(=O)OC[C@H]2COCCO2)cc1`, for which the melting point is 53 to 54 °C.

For the molecule `O=C(Nc1ccc(C(F)(F)F)cc1)C12CC3CC(CC(C3)C1)C2`, the melting point fell in the range of 189 to 193 °C.

Take `CCCCNC(=O)CCC(=O)c1ccccc1`: the melting point was in the range of 78 to 80 °C.

`CC(=O)Nc1ccc(-n2ccnc2S(=O)Cc2ccccc2N(C)C)nc1` (stereo unspecified) returned a melting point of 168 to 170 °C.

`CC(C)c1nn(-c2ccc(Cl)cn2)cc1C=O` yielded a melting point of 69 to 70 °C.

Molecule `Cn1c(=O)c2c(c3ccccc31)c1cc(Cl)ccc1n2CCN` displayed a melting point of 222 to 224 °C.

Take `Cn1c(=O)oc2cc(NCCCc3ccccc3)ccc21`: the melting point is 97 to 98 °C.

Molecule `O=C(O)c1ccc(-c2ccc(NC(=O)C(F)(F)F)cc2)[nH]c1=O` yielded a melting point above 270 °C.

`CCOC(=O)C1OC1C(=O)NC(CC(C)C)C(OC)c1ccccc1` (stereo unspecified) yielded a melting point of 108 to 109 °C.

Take `CCOC(=O)c1[nH]nnc1Nc1ccc(C)cc1`: the melting point fell in the range of 129 to 130 °C.

In turn, `CN(C)S(=O)(=O)c1ccc(Oc2ccc([N+](=O)[O-])cc2C#N)cc1` displayed a melting point of 222 to 223 °C.

In turn, `COC(=O)CNC(C)=S` registered a melting point of 78 to 79 °C.

Take `COc1ccccc1-c1nc(-c2ccccc2)nc(-c2ccccc2O)n1`: the melting point was in the range of 153 to 155 °C.

For `CC(C)(Nc1ccc(Cl)cc1[N+](=O)[O-])C(=O)O`, the melting point fell in the range of 162 to 164 °C.

The molecule `CCc1nc(OC)c(NC(=O)N2CCN(c3cc(OC)c(OC)c(OC)c3)CC2)cc1C(=O)Nc1cc(CO)cc(Nc2c3ccccc3nc3ccccc23)c1` showed a melting point of 190 to 192 °C.

For `O=C(Cc1ccc(Oc2ccc(F)cc2)cc1)NC1(C(=O)O)Cc2ccc(-c3ccc(Cl)cc3)cc2C1` (stereo unspecified), the melting point fell in the range of 232 to 234 °C.

Turning to `Cc1cc(Oc2ccc([N+](=O)[O-])cc2)c2cc3c(cc2n1)OCO3`, the melting point lay within 210 to 212 °C.

In turn, `O=C(O)CCCCCCCCNS(=O)(=O)c1ccc(Cl)cc1` showed a melting point of 121 to 123 °C.

In turn, `Cn1cc(Nc2nc(N3CCOCC3)nc(-n3c(C(F)F)nc4ccccc43)n2)cn1` had a melting point of 225 to 226 °C.

In turn, `Cn1ccnc1CCNS(=O)(=O)c1ccccc1NS(=O)(=O)c1cccc(C(F)(F)F)c1` returned a melting point of 171 to 176 °C.

Turning to `Fc1ccc(CNc2nc(Nc3cccc(C(F)(F)F)c3)nc(C(F)(F)F)n2)cc1`, the melting point fell in the range of 106 to 107 °C.

`CN(C)Cc1nc(CSCCNC(=C[N+](=O)[O-])NC2CC2)cs1` had a melting point of 128 to 132 °C.

Take `CCc1[nH]n(C2CCCC2)c2nc(SC)nc(=O)c1-2`: the melting point is 200 to 202 °C.

`CC(C)Cc1ccccc1-n1c(=O)[nH]c2c(C(N)=O)nc(-c3cccc(O)c3)nc21` registered a melting point above 260 °C.

In turn, `COC(=O)c1nc(Cl)c(Cl)c(Cl)c1I` gave a melting point of 61 to 62 °C.

`CCCCCC(=O)c1c[nH]c2c(OC)cccc2c1=O`: the melting point lay in the range of 169 to 171 °C.

As for `CCCCn1c(CO)nc2c(Cl)nc3ccccc3c21`, the melting point fell in the range of 184 to 185 °C.

Take `Cc1ccc(C2CCN(C(=O)CCC(=O)c3ccc4c(c3)CN(C(C)C)CC4)CC2)cc1`: the melting point lay in the range of 78 to 80 °C.

As to `Cc1nsc(-n2cc(C(=O)O)c(=O)c3cc(F)c(N4CCCC4)nc32)n1`, the melting point was above 300 °C.

For the molecule `C=Cc1cccc(C(=O)NC(Nc2c(Nc3cccnc3)c(=O)c2=O)C(C)(C)C)c1` (stereo unspecified), the melting point lay in the range of 209 to 210 °C.

Take `C=CCC(NC(=O)c1ccc(OC)cc1)C(C)=O` (stereo unspecified): the melting point lay in the range of 58 to 59 °C.

Consider `Cc1ccc(Oc2ccc(C=O)cc2)c(O)c1`, for which the melting point is 46 to 48 °C.

Regarding `CCCCCC(=O)N(NC(=O)c1ccccc1)C(C)(C)C`, the melting point fell in the range of 117 to 118 °C.

`CC(C)(C)OC(=O)N[C@@H](Cc1ccc(-c2ccccc2)cc1)c1nnnn1CCC#N` returned a melting point of 184 to 185 °C.

`Cc1c(C=O)c2cc(Cl)ccc2n1-c1ccc(O)cc1`: the melting point was above 240 °C.

With `COc1ccc(Oc2ccc(C#CC(C)N(O)C(N)=O)s2)cc1` (stereo unspecified), the melting point was 137 to 138 °C.

For `CN1CCN(Cc2ccc(COc3cccc4c3CN(C3CCC(=O)NC3=O)C4=O)cc2)CC1` (stereo unspecified), the melting point is 188 to 190 °C.

`O=C(CC1c2ccccc2C(=O)N1c1ccc2ccc(Cl)nc2n1)N1CCC2(CC1)OCCO2` (stereo unspecified) registered a melting point of 238 to 239 °C.

In turn, `COc1cc2c(cc1OCc1ccccc1)C1Cc3c(Cl)cc(OC)c(OCCOCCO)c3CN1CC2` (stereo unspecified) had a melting point of 122 °C.

Take `CCOC(=O)c1cc(CC)sc1Nc1cc(F)cc(F)c1[N+](=O)[O-]`: the melting point is 74 to 75 °C.

On to `Oc1cc2c(cc1O)-c1cc3cc(O)c(O)cc3nc1CC2`, for which the melting point is above 220 °C.

`Cn1nc(Nc2cc(-c3ccc(F)c(-c4c(C(N)=O)sc5c4C(O)C(C)(C)C5)c3)nn(C)c2=O)cc1CN1CCC1` (stereo unspecified) came in with a melting point of 110 to 111 °C.

In the case of `COc1cc2cc(-c3ccccc3)sc2c(Cl)c1Cl`, the melting point lay in the range of 144 to 145 °C.

The molecule `COc1c(C2CCN(CCCCNC(=O)c3ccc(-c4ccc(Cl)cc4)cc3)CC2)ccc2ccccc12` had a melting point of 197 °C.

`COc1ccc(F)cc1OCCN1C(=O)c2ccccc2C1=O` yielded a melting point of 134 to 136 °C.

In turn, `CC(C)C(=O)NC1CCc2c(c3cc(C#N)ccc3n2Cc2ccccc2C(F)(F)F)C1` (stereo unspecified) displayed a melting point of 222 to 225 °C.

As to `O=C(c1cc(NS(=O)(=O)c2ccccc2)ccn1)N(O)Cc1ccccc1`, the melting point lay in the range of 175 to 180 °C.

As to `COC(=O)c1nc(C2CCCCC2)[nH]c1-c1ccc(C)cc1`, the melting point lay in the range of 210 to 213 °C.

In turn, `Fc1cc(C(F)(F)F)ccc1/C=C/c1nc(COc2ccc(-c3nc(Cn4ccnc4)co3)cc2)co1` had a melting point of 150 to 153 °C.

`CCOC(=O)c1cc(-c2ccc(F)cc2)[nH]n1`: the melting point lay within 148 to 150 °C.

For the molecule `CCN(CC)CC(=O)OC1CC2(C)C(C(C)=O)CCC2C2CCC3CC(O)C(Cl)CC3(C)C12` (stereo unspecified), the melting point lay within 182 to 187 °C.

`CNC(=O)Nc1cc(-c2c(-c3ccc(F)c(C)c3)nc3cccnn23)ccn1` yielded a melting point of 225 to 227 °C.

As to `O=C1CCN(Cc2ccccn2)CC1C(c1ccccc1)c1ccccc1` (stereo unspecified), the melting point came to 100 °C.

In turn, `NC(=O)n1ccc(-c2ccc(Sc3ccc(F)cc3)cc2)n1` returned a melting point of 150 to 155 °C.

In the case of `COc1cccc([C@H]2O[C@H](CC(=O)Nc3ccc(OCCCc4ccccc4)c(CCC(=O)O)c3)C(=O)N(CC(C)(C)CO)c3ccc(Cl)cc32)c1OC`, the melting point is 147 to 149 °C.

As to `COc1ccc(-c2cc(=O)c3c(OC)cc(OC)cc3o2)cc1`, the melting point was 156 °C.

Consider `CC(C)(C)COc1ccc(NC(=O)c2cnn(CC(F)(F)F)c2)cc1C#N`, for which the melting point fell in the range of 159 to 160 °C.

`O=C(O)c1ccc(OCCNC(=O)C2Cc3ccccc3N2S(=O)(=O)c2ccc(-c3ccc(F)cc3)cc2)c(F)c1` (stereo unspecified) displayed a melting point of 118 °C.

With `O=C(O)CCC(=NOCc1ccc(OCc2ccccc2)cc1)c1ccccc1`, the melting point fell in the range of 86 to 87 °C.

For the molecule `CCOC(=O)c1c(=O)c2cc3c(cc2n2c(C)csc12)OCO3`, the melting point lay within 308 to 311 °C.

For the molecule `O=C(O)Cn1c(-c2ccc(C(F)(F)F)cc2)nc2cccnc21`, the melting point was in the range of 240 to 241 °C.

The record behind these values is a melting point compilation (Tetko et al.; mined from patent text by program, amines drawn as free bases though some values may be those of a salt).
